According to patent US20120196858A1, “METHOD OF PROMOTING APOPTOSIS AND INHIBITING METASTASIS” (Poniard Pharmaceuticals ,Inc., priority 2009, published 2012):
Where two headings read alike, the source gives them in different places.

Key:
[1] = biological target: T1, FAK Tyr-397 phosphorylation (Homo sapiens, UniProt Q05397); assay: Anti-phospho-specific immunoblotting of FAK Tyr-397 in human breast carcinoma cells; format: cell-based
T1 construct: endogenous in cells; host or cells: MDA-MB-231 human breast carcinoma cells
T1 sequence (Q05397 whole entry): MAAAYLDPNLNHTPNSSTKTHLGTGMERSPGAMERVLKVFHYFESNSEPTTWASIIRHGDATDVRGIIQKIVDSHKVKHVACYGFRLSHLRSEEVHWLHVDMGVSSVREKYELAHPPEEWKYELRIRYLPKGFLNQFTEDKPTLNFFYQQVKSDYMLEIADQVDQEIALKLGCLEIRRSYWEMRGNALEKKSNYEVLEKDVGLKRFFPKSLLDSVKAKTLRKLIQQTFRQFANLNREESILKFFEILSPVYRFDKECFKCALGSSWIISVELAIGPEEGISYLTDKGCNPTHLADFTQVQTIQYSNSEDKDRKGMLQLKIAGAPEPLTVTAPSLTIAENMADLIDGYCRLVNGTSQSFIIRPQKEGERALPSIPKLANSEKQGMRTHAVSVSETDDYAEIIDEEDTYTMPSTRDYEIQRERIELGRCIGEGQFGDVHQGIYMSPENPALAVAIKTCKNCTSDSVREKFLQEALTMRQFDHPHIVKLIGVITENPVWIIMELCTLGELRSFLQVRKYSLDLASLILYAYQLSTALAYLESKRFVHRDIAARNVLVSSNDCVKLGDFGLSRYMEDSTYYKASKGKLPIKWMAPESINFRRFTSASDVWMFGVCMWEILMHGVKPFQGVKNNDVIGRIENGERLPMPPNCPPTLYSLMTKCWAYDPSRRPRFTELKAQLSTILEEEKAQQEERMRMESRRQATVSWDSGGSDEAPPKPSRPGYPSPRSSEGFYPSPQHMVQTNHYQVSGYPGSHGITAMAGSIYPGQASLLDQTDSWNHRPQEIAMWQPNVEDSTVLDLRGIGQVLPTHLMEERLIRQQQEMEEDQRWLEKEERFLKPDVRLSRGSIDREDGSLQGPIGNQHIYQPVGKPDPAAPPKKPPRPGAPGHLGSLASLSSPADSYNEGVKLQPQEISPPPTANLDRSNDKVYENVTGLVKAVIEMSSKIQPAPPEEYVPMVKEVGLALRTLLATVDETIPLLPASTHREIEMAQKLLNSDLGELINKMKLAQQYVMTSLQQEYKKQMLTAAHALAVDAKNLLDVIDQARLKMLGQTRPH
Description: Immunoblotting: Protein extracts of cells were made using lysis buffer containing 1% Triton X-100, 1% sodium deoxycholate, and 0.1% SDS and were separated by 4-12% SDS-PAGE (sodium dodecyl sulfate polyacrylamide gel electrophoresis) and sequential immunoblotting performed as described in Mitra S K, Lim S T, Chi A, Schlaepfer D D. Intrinsic focal adhesion kinase activity controls orthotopic breast carcinoma metastasis via the regulation of urokinase plasminogen activator expression in a syngeneic tumor model. Oncogene 2006; 25:4429-40. Relative expression levels and phospho-specific antibody reactivity were measured by densitometry analyses of blots using Image J (version 1.42q). Inhibition of FAK and p130Cas tyrosine phosphorylation was quantified by calculating the ratio of pY397 FAK protein to total FAK. Similar analyses were performed for p130Cas using pY410 p130Cas and total p130Cas blot data.

c-Src (pY416 Src) = biological target: T2, c-Src (pY416 Src) (Mus musculus, UniProt P05480); assay: Phospho-specific immunoblotting of Src pY416 in 4T1 cells; format: cell-based, murine
T2 construct: endogenous in cells; host or cells: 4T1 murine mammary carcinoma cells

4T1 cells [2] = assay: Millicell chamber motility assay (fibronectin, serum chemotaxis); format: cell-based, murine; settings: Mus musculus, 4 h, read-out: maximal inhibition of cell movement
Protocol: Cell migration assays: Serum-stimulated chemotaxis using Millicell (12 mm diameter with 8 μm pores; Millipore) chambers were performed as described previously^49. Both sides of membrane were coated with fibronectin (10 μg/ml) and chemotaxis was stimulated by addition of 10% FBS to the lower chamber. Data points represent cell counts (9 fields) from three migration chambers from at least two independent experiments. For scratch-wound closure motility assays, cells were seeded onto fibronectin-coated (10 μg/ml) glass bottom 12 well plates (MatTek) and serum starved (0.5% FBS) for 16 h. Cells were wounded with a pipette tip, washed with phosphate-buffered salin (PBS), and replenished with 10% FBS media with or without FAK inhibitor (1 μM). Time-lapse series was obtained by acquiring images at 10 min intervals for up to 22 h, at 37° C. with humidity and CO2 regulation using a 10× objective on an automated stage (Olympus IX81). Cell trajectories and distance traveled were measured by tracking nucleus position over time using Image J.

4T1 cells [3] = assay: Adherent and suspended (non-adherent) cell growth, cell numbers; format: cell-based, murine
Protocol: (§1) Anchorage-dependent, spheroid, and soft agar cell growth assays: Cells (2×10^5) were plated per 35 mm well under adherent (tissue culture-treated) and non-adherent conditions (poly-HEMA-coated) in 6-well plates (Costar) in growth media. Between 24 and 168 h, all cells were collected, a single cell suspension was prepared by limited trypsin-EDTA treatment, and viable cells were enumerated by trypan blue staining and counting (ViCell XR, Beckman). For spheroid area determination, cells were imaged after 72 h in phase contrast using an Olympus IX51 microscope. Area was calculated using Image J software (version 1.43). For soft agar assays, 48-well plates were coated with a 1:4 mix of 2% agar (EM Science) in 0.2 ml growth media (bottom layer). 5×10^4 cells were plated per well (in triplicate) in a mixture of 0.3% agar in 0.2 ml growth media (top layer). […] After 10 days, colonies were imaged in phase contrast, enumerated by counting 9 fields (3 fields per well), and total area determined using Image J. For all analyses, experimental points were performed in triplicate and were experiments were repeated at least two times.

4T1 cells [4] = assay: Cell cycle analysis by propidium iodide staining and flow cytometry; format: cell-based, murine; settings: 1.0 μM
Protocol: Cell pellets were resuspended in 300 p. 1 of PBS containing propidium iodide (PI) (10 μg/ml), DNAse-free RNAse (100 μg/ml, Qiagen), and then incubated at 37° C. with agitation for 1 h. Samples were analyzed by flow cytometry (FACSCalibur, Becton-Dickinson) and cell cycle analyses were performed by ModFit LT3.2 software (Verity software house). Hypodiploid DNA content as a measure of cell apoptosis was detected by PI staining as described ^29. […] Quadrant gates were positioned based on cell autofluorescence (negative) staurosporine-treated (positive) controls. Apoptosis was calculated to be the percent of annexin V-positive cells. In the soft agar assays, apoptosis was quantified by visual inspection of at least 200 cells and was defined as the appearance of membrane blebbing or cell shrinkage. Apoptosis was also detected by appearance of cleaved caspase-3 antibody reactivity in protein lysates by immunoblotting.

4T1 cells [5] = assay: 3D spheroid size assay; format: cell-based, murine; settings: 72 h
Protocol: as §1

[6] = Pharmacodynamic (PD) evaluation in subcutaneous 4T1 tumors, single i.p. injection; format: in vivo, Balb/c mice; settings: Balb/c, mouse, intraperitoneal, 100 mg/kg i.p., 12 h
[7] = system: FAK and p130Cas phosphorylation in 4T1 tumors; assay: as above; format: in vivo, Balb/c mice; settings: for maximal plasma levels: single injection
MDA-MB-231 tumors = assay: Orthotopic MDA-MB-231 breast carcinoma model; format: in vivo, NOD/SCID mice; settings: 0.5 mg/ml ad libitum
Protocol: Orthotopic breast cancer models: One million 4T1 or MDA-MB-231 cells in 10 μl PBS were injected into the T4 mammary fat pad of 8-10 week old mice using a Hamilton syringe. […] Tumors were measured every 3-4 days with digital vernier calipers and tumor volume (mm^3) was calculated using the formula: V=axb^2/2 (a=length, mm; b=width, m) Body weight was measured weekly to assess toxicity. Lungs, spleen, and primary tumors were surgically removed and weighed. Tumors sections were homogenized in protein lysis buffer for immunoblotting or placed in Optimal Cutting Temperature (OCT) compound (Tissue Tek), frozen in liquid nitrogen, thin sectioned (7 μM) using a cryostat (Leica 3050S), and mounted onto glass slides.
Metastatic tumor burden (number of metastatic lesion or mean pixel volume) was determined and groups (Negligible, Moderate, and High) were separated based upon numbers distribution. After imaging, lungs were fixed in Bouin's solution (Sigma), paraffin embedded, sectioned, and stained with hematoxylin and eosin (H&E) for histological evaluation. Images were acquired using a differential interference contrast-equipped Olympus IX81 inverted microscope and an Olympus DP71 digital color camera using Slidebook (v5.0) software. For MDA-MB-231 tumor metastasis studies, lungs were inflated by intratracheal injection of a 1:1 solution of OCT in sterile water using a 25 gauge needle. Lungs were resected, embedded in OCT, and frozen in liquid nitrogen.

MDA-MB-231 cells = assay: Apoptosis assay of suspended cells (annexin V, flow cytometry); format: cell-based, human; settings: up to 10 μM, within 6 h
Protocol: Quadrant gates were positioned based on cell autofluorescence (negative) staurosporine-treated (positive) controls. Apoptosis was calculated to be the percent of annexin V-positive cells.

Solubility in water = format: physicochemical; settings: HCl salt
Description: 10, 2008, and published as WO 2008/115369.

CNC(=O)c1ccccc1Nc1cc(Nc2ccc(N3CCOCC3)cc2OC)ncc1C(F)(F)F [PND-1186]
IC50 [1]: ~100 nM | Src pY416 and Src expression levels in spheroids (c-Src (pY416 Src); PND-1186-treated 3D spheroids): no change | Src pY416 phosphorylation (c-Src (pY416 Src); adherent 4T1 cells, 1 h, PND-1186 to 1 μM): did not affect c-Src activity | inhibition at 0.4 µM (4T1 cells [2]): 50 to 60% | reduction of cell number, suspended cells (4T1 cells [3]; 0.1 μM, 72 h, vs DMSO): significant (p<0.001) | cell proliferation, FAK-Cas phosphorylation and cell death (4T1 cells [3]; 100 nM, colonies in soft agar or non-adherent conditions): inhibited cell proliferation, FAK-Cas phosphorylation, and induced cell death | total cell number, adherent cells (4T1 cells [3]; 1.0 μM, 72 h): decreased in number | total cell number, adherent cells (4T1 cells [3]; 0.1 to 1.0 μM, 24 or 48 h): no differences were observed | total cell number, suspended cells (4T1 cells [3]; all concentrations (0.1 to 1.0 μM), 48 h): reduced cell numbers | cytotoxicity to cells in culture (4T1 cells [3]; cells in culture): non-cytotoxic | cell cycle distribution, suspended cells (4T1 cells [4]): did not reveal cell cycle differences | cell cycle distribution, adherent cells (4T1 cells [4]; 72 h, vs DMSO): slight accumulation in the S and G2/M phases | sub-diploid (1N) cells, suspended cells (4T1 cells [4]; PI staining): accumulation of sub-diploid (1N) cells | reduction in average spheroid size (4T1 cells [5]; 0.1 μM): ~3 fold | concentration of maximal effect on spheroid size (4T1 cells [5]): 0.2 µM | concentration at 12 h ([6]; plasma, read-out: average concentration in plasma at 12 h): 15.1 µM | concentration at 12 h ([6]; tumor, read-out: average concentration in tumors at 12 h): 10400 ng/g | duration of tumor FAK pY397 inhibition ([7]; 30 mg/kg i.p.): 3 to 6 h | maximal PND-1186 in tumors ([7]; 30 mg/kg i.p.): 0.75 µg/g | time to maximal PND-1186 in tumors ([7]; 30 mg/kg i.p.): ≤ 1 h | time to maximal plasma levels ([7]; 30 mg/kg i.p.): ≤ 15 min | plasma levels at 12 h ([7]; 30 mg/kg i.p., 12 h): 0.1 µM | tumor FAK pY397 phosphorylation at 12 h ([7]; 30 mg/kg i.p., 12 h): not significantly inhibited | tumor PND-1186 levels by 12 h ([7]; 30 mg/kg i.p., 12 h): 0.04 µg/g | maximal plasma levels ([7]; 30 mg/kg i.p.): 35 µM | time to maximal PND-1186 in tumors ([7]; 100 mg/kg i.p.): ≤ 1 h | time to maximal plasma levels ([7]; 100 mg/kg i.p.): ≤ 30 min | plasma levels at 12 h ([7]; 100 mg/kg i.p., 12 h): 1.1 µM | p130Cas Tyr-410 phosphorylation (pY410Cas) in tumors ([7]; 100 mg/kg i.p., by 3 h): significantly reduced p130Cas Tyr-410 phosphorylation | sustained inhibition of tumor FAK Tyr-397 phosphorylation ([7]; 100 mg/kg i.p., for 12 h): > 60% | maximal plasma levels ([7]; 100 mg/kg i.p.): 117 µM | maximal PND-1186 in tumors ([7]; 100 mg/kg i.p., maintained up to 12 h): 16.1 µg/g | FAK pY397 phosphorylation in MDA-MB-231 tumors (MDA-MB-231 tumors): significantly reduce FAK pY397 phosphorylation | reduction of number of metastatic lung lesions (MDA-MB-231 tumors): > 3.5 fold | tumor size by Day 27 (caliper) (MDA-MB-231 tumors; 15 days of administration): control tumors were significantly larger | decrease in final tumor weight (MDA-MB-231 tumors; Day 70): > 5 fold | MDA-MB-231 apoptosis in suspension (MDA-MB-231 cells): did not promote increased MDA-MB-231 apoptosis | solubility (Solubility in water): 22 mg/mL
